Results taken from patent US5001137A, “Pyridine compounds and pharmaceutical use thereof” (Yoshitomi Pharmaceutical Industries, Ltd., priority 1988, dated 1991).

Molecular target: T1, prolylendopeptidase (Rattus norvegicus, UniProt O70196)
T1 construct: using rat cerebral soluble fractions as the crude enzyme; from tissue; host or cells: rat cerebrum, soluble fraction (crude enzyme)
Test: Measurement of prolylendopeptidase-inhibitory activity (rat cerebral soluble fractions as crude enzyme; succinyl-glycyl-prolylmethylcoumarinamide substrate, fluorescence)
Assay type: biochemical
Details: rat cerebral soluble fraction, pH 7.0, 30° C., 15 minutes, 0.25% dimethylsulfoxide
Method: The prolylendopeptidase-inhibitory activity was estimated, using rat cerebral soluble fractions as the crude enzyme, in accordance with the methods by Yoshimoto et al (Biochem. Biophys. Acta., vol. 569, p 184 (1979)) and Kato et al. (J. Neurochem., vol. 35, p 527 (1980)). That is, a mixture containing 0.1 ml of 0.25 mM succinyl-glycyl-prolylmethylcoumarinamide, 1.15 ml of 0.1M Na/K phosphate buffer solution (pH 7.0), 0.1 ml of the crude enzyme and 0.1 ml of a solution of the compound of the present invention (at the final concentration of dimethylsulfoxide of 0.25%) was incubated at 30° C. for 15 minutes. Thereafter 1.5 ml of 0.1M acetate buffer solution (pH 4.2) was added to terminate the reaction. The fluorescence intensity (a) of the liberated methyl coumarinamide was measured by a fluorophotometer (Ex. 370 nm, Em. 440 nm). At the same time, the fluorescence intensity (b) of the control comprising a dimethylsulfoxide solution alone (at the final concentration of 0.25%) instead of the compound of the present invention was measured, and the prolylendopeptidase-inhibitory rate was calculated in accordance with the following formula and the concentration at which 50% of inhibition (IC50) can be attained was estimated.
Inhibition (%)={(b-a)/b)}×100

T1 sequence (O70196 whole entry): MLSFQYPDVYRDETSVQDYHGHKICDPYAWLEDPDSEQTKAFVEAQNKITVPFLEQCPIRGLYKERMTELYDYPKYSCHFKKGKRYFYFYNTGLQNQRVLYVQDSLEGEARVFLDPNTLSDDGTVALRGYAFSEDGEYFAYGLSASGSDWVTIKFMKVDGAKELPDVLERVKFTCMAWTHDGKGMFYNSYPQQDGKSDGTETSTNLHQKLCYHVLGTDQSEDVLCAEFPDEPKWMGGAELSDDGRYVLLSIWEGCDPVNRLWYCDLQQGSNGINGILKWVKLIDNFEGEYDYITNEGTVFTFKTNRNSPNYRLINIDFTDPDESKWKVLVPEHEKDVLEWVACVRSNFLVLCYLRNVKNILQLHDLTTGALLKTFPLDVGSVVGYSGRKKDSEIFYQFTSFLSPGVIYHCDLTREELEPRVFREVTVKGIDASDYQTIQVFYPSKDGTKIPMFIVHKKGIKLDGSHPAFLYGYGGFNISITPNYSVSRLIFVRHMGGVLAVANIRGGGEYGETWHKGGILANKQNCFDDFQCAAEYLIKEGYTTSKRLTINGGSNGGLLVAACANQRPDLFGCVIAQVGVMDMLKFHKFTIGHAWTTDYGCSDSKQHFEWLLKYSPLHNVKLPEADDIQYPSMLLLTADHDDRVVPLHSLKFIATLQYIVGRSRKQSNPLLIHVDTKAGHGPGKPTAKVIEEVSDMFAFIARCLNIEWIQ

Compound | IC50
CN(C)CCc1ccc(Oc2ncccc2C(=O)c2cccs2)cc1 [Example 1, 2-[4-(2-dimethylaminoethyl)phenoxy]-3-(2-thenoyl)pyridine] | 0.014 µM
CN(C)CCCCCCOc1ccc(Oc2ncccc2C(=O)c2cccs2)cc1 [Example 2, 2-[4-(6-dimethylaminohexyloxy)phenoxy]-3-(2-thenoyl)pyridine] | 0.03 µM
CN(C)CCCOc1ccc(Oc2ncccc2C(=O)c2cccs2)cc1 [Example 4, 2-[4-(3-dimethylaminopropoxy)phenoxy]-3-(2-thenoyl)pyridine] | 0.06 µM
CN(C)CCCCCCSc1ncccc1C(=O)c1cccs1 [Example 5, 2-(6-dimethylaminohexylthio)-3-(2-thenoyl)pyridine] | 0.0095 µM
CN(CCCCCCOc1ncccc1C(=O)c1cccs1)Cc1ccccc1 [Example 6, 2-[6-(N-benzyl-N-methylamino)hexyloxy]-3-(2-thenoyl)pyridine] | 0.078 µM
CN(C)CCCCCCOc1ncccc1C(=O)c1cccs1 [Example 13, 2-(6-dimethylaminohexyloxy)-3-(2-thenoyl)pyridine] | 0.055 µM
CC(CSCCCCCCN(C)C)Sc1ncccc1C(=O)c1cccs1 (stereo not shown) [Example 17, 2-[2-(6-Dimethylaminohexylthio)-1-methylethylthio]-3-(2-thenoyl)pyridine] | 0.0045 µM
Cc1ccc(C(=O)c2cccs2)c(SCCCCCCN(C)C)n1 [Example 18, 2-(6-Dimethylaminohexylthio)-6-methyl-3-(2-thenoyl)pyridine] | 0.0095 µM
CN(C)CCCCCCSCCSc1ncccc1C(=O)c1cccs1 [Example 19, 2-[2-(6-Dimethylaminohexylthio)ethylthio]-3-(2-thenoyl)pyridine] | 0.0045 µM
CC(CSCCCN(C)C)Sc1ncccc1C(=O)c1cccs1 (stereo not shown) [Example 20, 2-[2 (3-Dimethylaminopropylthio)-1-methylethylthio]-3-(2-thenoyl)pyridine] | 0.0045 µM
CC(C)c1ccc(C(=O)c2cccs2)c(SCCCCCCN(C)C)n1 [Example 21, 2-(6-Dimethylaminohexylthio)-6-isopropyl-3-(2-thenoyl)pyridine] | 0.0055 µM
CCN(CC)CCCCCCSc1nc(C(C)C)ccc1C(=O)c1cccs1 [Example 22, 2-(6-Diethylaminohexylthio)-6-isopropyl-3-(2-thenoyl)pyridine] | 0.011 µM
CN(C)CCCOc1ncccc1C(=O)c1ccc(Cl)cc1 [Known Compound, 3-(4-chlorobenzoyl)-2-(3-dimethylaminepropoxy)pyridine, reference compound] | 1800 µM
